Laboratory results from the NIST ThermoML archive (doi:10.1016/j.jct.2016.03.026).

Experiment: xn = mol fraction of the nth substance listed
Settings: 263.15 K, Fluid (supercritical or subcritical phases), Vibrating tube method, x1 = 0.97

O=C=O [carbon dioxide] + CO
Settings | mass density [kg/m3]
7525 kPa | 1006.96
7550 kPa | 1007.04
7575 kPa | 1007.2
7600 kPa | 1007.28
7625 kPa | 1007.38
7650 kPa | 1007.53
7675 kPa | 1007.61
7700 kPa | 1007.76
7725 kPa | 1007.86
7750 kPa | 1007.94
7775 kPa | 1008.1
7800 kPa | 1008.18
7825 kPa | 1008.35
7850 kPa | 1008.43
7875 kPa | 1008.51
7900 kPa | 1008.68
7925 kPa | 1008.76
7950 kPa | 1008.84
7975 kPa | 1009
8000 kPa | 1009.08
8025 kPa | 1009.16
8050 kPa | 1009.33
8075 kPa | 1009.41
8100 kPa | 1009.54
8125 kPa | 1009.66
8150 kPa | 1009.74
8175 kPa | 1009.86
8200 kPa | 1009.98
8225 kPa | 1010.06
8250 kPa | 1010.23
8275 kPa | 1010.31
8300 kPa | 1010.39
8325 kPa | 1010.56
8350 kPa | 1010.64
8375 kPa | 1010.74
8400 kPa | 1010.88
8425 kPa | 1010.96
8450 kPa | 1011.04
8475 kPa | 1011.21
8500 kPa | 1011.29
8525 kPa | 1011.44
8550 kPa | 1011.54
8575 kPa | 1011.62
8600 kPa | 1011.73
8625 kPa | 1011.86
8650 kPa | 1011.94
8675 kPa | 1012.05
8700 kPa | 1012.19
8725 kPa | 1012.27
8750 kPa | 1012.41
8775 kPa | 1012.52
8800 kPa | 1012.6
8825 kPa | 1012.76
8850 kPa | 1012.85
8875 kPa | 1012.93
8900 kPa | 1013.03
8925 kPa | 1013.17
8950 kPa | 1013.25
8975 kPa | 1013.35
9000 kPa | 1013.49
9025 kPa | 1013.58
9050 kPa | 1013.66
9075 kPa | 1013.83
9100 kPa | 1013.91
9125 kPa | 1013.99
9150 kPa | 1014.08
9175 kPa | 1014.23
9200 kPa | 1014.31
9225 kPa | 1014.39
9250 kPa | 1014.56
9275 kPa | 1014.64
9300 kPa | 1014.72
9325 kPa | 1014.89
9350 kPa | 1014.97
9375 kPa | 1015.05
9400 kPa | 1015.13
9425 kPa | 1015.3
9450 kPa | 1015.38
9475 kPa | 1015.46
9500 kPa | 1015.54
9525 kPa | 1015.7
9550 kPa | 1015.78
9575 kPa | 1015.87
9600 kPa | 1016.03
9625 kPa | 1016.11
9650 kPa | 1016.19
9675 kPa | 1016.28
9700 kPa | 1016.44
9725 kPa | 1016.52
9750 kPa | 1016.6
9775 kPa | 1016.77
9800 kPa | 1016.85
9825 kPa | 1016.93
9850 kPa | 1017.01
9875 kPa | 1017.17
9900 kPa | 1017.25
9925 kPa | 1017.34
9950 kPa | 1017.47
9975 kPa | 1017.58
10000 kPa | 1017.66
10025 kPa | 1017.74
10050 kPa | 1017.83
10075 kPa | 1017.99
10100 kPa | 1018.07
10125 kPa | 1018.15
10150 kPa | 1018.23
10175 kPa | 1018.34
10200 kPa | 1018.48
10225 kPa | 1018.56
10250 kPa | 1018.68
10275 kPa | 1018.81
10300 kPa | 1018.89
10325 kPa | 1018.97
10350 kPa | 1019.09
10375 kPa | 1019.21
10400 kPa | 1019.3
10425 kPa | 1019.38
10450 kPa | 1019.46
10475 kPa | 1019.62
10500 kPa | 1019.7
10525 kPa | 1019.78
10550 kPa | 1019.87
